Experimental data reported in PubChem BioAssay AID256 (DTP/NCI, 2004).
“And” between values parts separate entries of the source, which are not always exact repeats. Equal values may be shown once. Toxic doses and inconclusive results are not listed. The calls were made as follows: active = survival T/C of 150% or more; inactive = T/C below 125% in these data.

Tested on: CD2F1 mice, L1210 leukemia ip, survival T/C
Assay: NCI In Vivo Anticancer Drug Screen. Data for tumor model L1210 Leukemia (intraperitoneal) in CD2F1 (CDF1) mice
Details: endpoint: mean survival time, higher = longer survival
Method in brief: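 Transplantable tumor in mice; compound-treated vs vehicle-treated groups. Read-out = treated/control ratio of the measured endpoint.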

[1] = dose: 100.0 mg/kg/injection, schedule: Q01DX009 (ip), vehicle: saline with Tween-80
[2] = dose: 100.0 mg/kg/injection, schedule: Q04DX003 (ip), vehicle: saline with Tween-80
[3] = dose: 200.0 mg/kg/injection, schedule: Q01DX009 (ip), vehicle: saline with Tween-80
[4] = dose: 200.0 mg/kg/injection, schedule: Q04DX003 (ip), vehicle: saline with Tween-80
[5] = dose: 400.0 mg/kg/injection, schedule: Q01DX009 (ip), vehicle: saline with Tween-80
[6] = dose: 400.0 mg/kg/injection, schedule: Q04DX003 (ip), vehicle: saline with Tween-80
[7] = dose: 25.0 mg/kg/injection, schedule: Q01DX009 (ip), vehicle: Klucel (hydroxypropylcellulose) (HPC)
[8] = dose: 50.0 mg/kg/injection, schedule: Q01DX009 (ip), vehicle: Klucel (hydroxypropylcellulose) (HPC)
[9] = dose: 100.0 mg/kg/injection, schedule: Q01DX009 (ip), vehicle: Klucel (hydroxypropylcellulose) (HPC)
[10] = dose: 200.0 mg/kg/injection, schedule: Q01DX009 (ip), vehicle: Klucel (hydroxypropylcellulose) (HPC)
[11] = dose: 100.0 mg/kg/injection, schedule: Q01DX001 (ip), vehicle: saline
[12] = dose: 200.0 mg/kg/injection, schedule: Q01DX001 (ip), vehicle: saline
[13] = dose: 400.0 mg/kg/injection, schedule: Q01DX001 (ip), vehicle: saline

Measured: T/C

COC(CCN1C(=O)c2ccccc2C1=O)C(Br)C(=O)O (stereo unspecified)
inactive: [1] 92 % of control | [2] 101 % of control | [3] 92 % of control | [4] 97 % of control | [5] 89 % of control | [6] 98 % of control

CCN(CC)CCNC(=O)C(O)(c1ccccc1)c1ccccc1
inactive: dose: 50.0 mg/kg/injection, schedule: Q01DX009 (ip), vehicle: saline 98 % of control | dose: 100.0 mg/kg/injection, schedule: Q01DX009 (ip), vehicle: saline 103 % of control

CSc1nnc(SC)c(SC)n1
inactive: dose: 75.0 mg/kg/injection, schedule: Q01DX001 (ip), vehicle: saline 96 % of control

O=Cc1ccccc1
inactive: dose: 12.5 mg/kg/injection, schedule: Q01DX009 (ip), vehicle: Klucel (hydroxypropylcellulose) (HPC) 101 % of control | [7] 95 % of control and 102 % of control | [8] 96 % of control and 100 % of control | [9] 97 % of control and 102 % of control | [10] 97 % of control and 105 % of control | dose: 400.0 mg/kg/injection, schedule: Q01DX009 (ip), vehicle: Klucel (hydroxypropylcellulose) (HPC) 92 % of control and 93 % of control

O=C(O)/C=C/C(=O)Nc1ccc(C(=O)O)cc1
inactive: dose: 100.0 mg/kg/injection, schedule: Q01DX001 (ip), vehicle: saline with Tween-80 94 % of control | [1] 91 % of control | dose: 200.0 mg/kg/injection, schedule: Q01DX001 (ip), vehicle: saline with Tween-80 92 % of control | [3] 96 % of control | dose: 400.0 mg/kg/injection, schedule: Q01DX001 (ip), vehicle: saline with Tween-80 92 % of control | [5] 89 % of control

CC(C)OP(=O)(OCCCO)C(Cl)Cl (stereo unspecified)
inactive: [11] 100 % of control | [12] 102 % of control | [13] 102 % of control

Brc1cnc(Br)s1
inactive: dose: 13.0 mg/kg/injection, schedule: Q04DX002 (ip), vehicle: Klucel (hydroxypropylcellulose) (HPC) 92 % of control | dose: 20.0 mg/kg/injection, schedule: Q04DX002 (ip), vehicle: Klucel (hydroxypropylcellulose) (HPC) 98 % of control | dose: 30.0 mg/kg/injection, schedule: Q04DX002 (ip), vehicle: Klucel (hydroxypropylcellulose) (HPC) 98 % of control | dose: 45.0 mg/kg/injection, schedule: Q04DX002 (ip), vehicle: Klucel (hydroxypropylcellulose) (HPC) 95 % of control

CCN(CC)S(=O)(=O)c1ccc(-c2cc(Cl)c3cc(S(=O)(=O)F)ccc3n2)cc1
inactive: [1] 107 % of control | [3] 87 % of control | [5] 91 % of control

CCOP(=O)(OCC)/C(C#N)=C\c1ccc(N(C)C)cc1
inactive: [2] 101 % of control | [4] 95 % of control | [6] 98 % of control

CC(C)(C)c1ccc(OCC(=O)O)cc1
inactive: dose: 100.0 mg/kg/injection, schedule: Q04DX003 (ip), vehicle: other 100 % of control | dose: 200.0 mg/kg/injection, schedule: Q04DX003 (ip), vehicle: other 101 % of control

CCCCCCCCCCCCCCCC(=O)N(CCC#N)C(C)(C)CCC(C)(C)N(CCC#N)C(=O)CCCCCCCCCCCCCCC
inactive: [7] 95 % of control | [8] 95 % of control | [9] 88 % of control | [10] 88 % of control

CC(=O)OC(Cc1ccc(Cl)cc1)c1ccc(Cl)cc1 (stereo unspecified)
inactive: dose: 50.0 mg/kg/injection, schedule: Q04DX002 (ip), vehicle: saline with Tween-80 96 % of control | dose: 100.0 mg/kg/injection, schedule: Q04DX002 (ip), vehicle: saline with Tween-80 96 % of control | dose: 200.0 mg/kg/injection, schedule: Q04DX002 (ip), vehicle: saline with Tween-80 90 % of control | dose: 400.0 mg/kg/injection, schedule: Q04DX002 (ip), vehicle: saline with Tween-80 90 % of control

Nc1ccc2cc3ccccc3cc2c1
inactive: dose: 12.5 mg/kg/injection, schedule: Q01DX009 (ip), vehicle: saline with Tween-80 104 % of control | dose: 25.0 mg/kg/injection, schedule: Q01DX009 (ip), vehicle: saline with Tween-80 104 % of control | dose: 50.0 mg/kg/injection, schedule: Q01DX009 (ip), vehicle: saline with Tween-80 95 % of control | [2] 109 % of control | [4] 111 % of control | [6] 94 % of control

CCOC(=O)c1ccc(NS(=O)c2ccccc2)cc1 (stereo unspecified)
inactive: [11] 95 % of control | dose: 100.0 mg/kg/injection, schedule: Q04DX003 (ip), vehicle: saline 109 % of control | [12] 95 % of control | dose: 200.0 mg/kg/injection, schedule: Q04DX003 (ip), vehicle: saline 108 % of control | [13] 94 % of control | dose: 400.0 mg/kg/injection, schedule: Q04DX003 (ip), vehicle: saline 103 % of control
